{
  "source": "patent US11319299B2",
  "about": "“Substituted carboxamides as inhibitors of WDR5 protein-protein binding” (PROPELLON THERAPEUTICS INC., priority 2016, dated 2022)",
  "data": [
    {"biological_target": "WDR5 (Homo sapiens (Human), UniProt P61964)", "test": "Surface Plasmon Resonance (SPR) assay, KD and residence time", "assay_type": "binding", "conditions": "surface plasmon resonance (SPR); read-out: WDR5 binding affinity (KD)", "units": {"Kd": "µM"}, "values": [
      {"smiles": "C[C@@H]1CN(c2cc(F)c(-c3cnn(CCN4CCOCC4)c3)cc2NC(=O)c2c[nH]c(=O)cc2C(F)(F)F)C[C@H](C)N1C", "note": "[Example 716, N-[4-fluoro-5-[1-(2-morpholin-4-ylethyl)pyrazol-4-yl]-2-[(3R,5S)-3,4,5-trimethylpiperazin-1-yl]phenyl]-6-oxo-4-(trifluoromethyl)-1H-pyridine-3-carboxamide]", "Kd": 0.00242},
      {"smiles": "C[C@@H]1CN(c2cc(F)c(-c3cnn(CCN4CCOCC4)c3)cc2NC(=O)c2cn(C)c(=O)cc2C(F)F)C[C@H](C)N1C", "note": "[Example 717, 4-(difluoromethyl)-N-[4-fluoro-5-[1-(2-morpholin-4-ylethyl)pyrazol-4-yl]-2-[(3R,5S)-3,4,5-trimethylpiperazin-1-yl]phenyl]-1-methyl-6-oxopyridine-3-carboxamide]", "Kd": 0.0216},
      {"smiles": "C[C@@H]1CN(c2cc(F)c(-c3cnc(N4CCOCC4)nc3)cc2NC(=O)c2ccc(F)cc2C(F)F)C[C@H](C)N1C", "note": "[Example 722, 2-(difluoromethyl)-4-fluoro-N-[4-fluoro-5-(2-morpholin-4-ylpyrimidin-5-yl)-2-[(3R,5S)-3,4,5-trimethylpiperazin-1-yl]phenyl]benzamide]", "Kd": 0.00136},
      {"smiles": "CC(C)OC(=O)N1CCC=C(c2cc(NC(=O)c3c[nH]c(=O)cc3C(F)F)c(N3C[C@@H](C)N(C)[C@@H](C)C3)cc2F)CC1", "note": "[Example 723, propan-2-yl 4-[5-[[4-(difluoromethyl)-6-oxo-1H-pyridine-3-carbonyl]amino]-2-fluoro-4-[(3R,5S)-3,4,5-trimethylpiperazin-1-yl]phenyl]-2,3,6,7-tetrahydroazepine-1-carboxylate]", "Kd": 0.00312},
      {"smiles": "CC(C)OC(=O)N1CCC=C(c2cc(NC(=O)c3c[nH]c(=O)cc3C(F)F)c(N3C[C@@H](C)N(C)[C@@H](C)C3)cc2F)C1", "note": "[Example 725, propan-2-yl 5-[5-[[4-(difluoromethyl)-6-oxo-1H-pyridine-3-carbonyl]amino]-2-fluoro-4-[(3R,5S)-3,4,5-trimethylpiperazin-1-yl]phenyl]-3,6-dihydro-2H-pyridine-1-carboxylate]", "Kd": 0.00159},
      {"smiles": "C[C@@H]1CN(c2cc(F)c(C3=CCCN(C(=O)OC4(C)CCC4)CC3)cc2NC(=O)c2c[nH]c(=O)cc2C(F)F)C[C@H](C)N1C", "note": "[Example 729, (1-methylcyclobutyl) 4-[5-[[4-(difluoromethyl)-6-oxo-1H-pyridine-3-carbonyl]amino]-2-fluoro-4-[(3R,5S)-3,4,5-trimethylpiperazin-1-yl]phenyl]-2,3,6,7-tetrahydroazepine-1-carboxylate]", "Kd": 0.00311},
      {"smiles": "C[C@@H]1CN(c2cc(F)c(C3=CCCN(C(=O)OC4CC(F)(F)C4)CC3)cc2NC(=O)c2c[nH]c(=O)cc2C(F)F)C[C@H](C)N1C", "note": "[Example 730, (3,3-difluorocyclobutyl) 4-[5-[[4-(difluoromethyl)-6-oxo-1H-pyridine-3-carbonyl]amino]-2-fluoro-4-[(3R,5S)-3,4,5-trimethylpiperazin-1-yl]phenyl]-2,3,6,7-tetrahydroazepine-1-carboxylate]", "Kd": 0.00799},
      {"smiles": "C[C@@H]1CN(c2cc(F)c(C3=CCCN(c4ncc(C#N)s4)CC3)cc2NC(=O)c2c[nH]c(=O)cc2C(F)F)C[C@H](C)N1C", "note": "[Example 731, N-[5-[1-(5-cyano-1,3-thiazol-2-yl)-2,3,6,7-tetrahydroazepin-4-yl]-4-fluoro-2-[(3R,5S)-3,4,5-trimethylpiperazin-1-yl]phenyl]-4-(difluoromethyl)-6-oxo-1H-pyridine-3-carboxamide]", "Kd": 0.00761},
      {"smiles": "C[C@@H]1CN(c2cc(F)c(-c3ccc(C(=O)NC4CCCCC4)c(F)c3)cc2NC(=O)c2c[nH]c(=O)cc2C(F)(F)F)C[C@H](C)N1C", "note": "[Example 732, N-[5-[4-(cyclohexylcarbamoyl)-3-fluorophenyl]-4-fluoro-2-[(3R,5S)-3,4,5-trimethylpiperazin-1-yl]phenyl]-6-oxo-4-(trifluoromethyl)-1H-pyridine-3-carboxamide]", "Kd": 0.00276},
      {"smiles": "C[C@@H]1CN(c2cc(F)c(-c3ccc(C(=O)N(C)CC4CC4)c(F)c3)cc2NC(=O)c2c[nH]c(=O)cc2C(F)(F)F)C[C@H](C)N1C", "note": "[Example 733, N-[5-[4-[cyclopropylmethyl(methyl)carbamoyl]-3-fluorophenyl]-4-fluoro-2-[(3R,5S)-3,4,5-trimethylpiperazin-1-yl]phenyl]-6-oxo-4-(trifluoromethyl)-1H-pyridine-3-carboxamide]", "Kd": 0.00129},
      {"smiles": "C[C@@H]1CN(c2cc(F)c(-c3ccc(C(=O)NC4CCC(F)(F)CC4)c(F)c3)cc2NC(=O)c2c[nH]c(=O)cc2C(F)(F)F)C[C@H](C)N1C", "note": "[Example 734, N-[5-[4-[(4,4-difluorocyclohexyl)carbamoyl]-3-fluorophenyl]-4-fluoro-2-[(3R,5S)-3,4,5-trimethylpiperazin-1-yl]phenyl]-6-oxo-4-(trifluoromethyl)-1H-pyridine-3-carboxamide]", "Kd": 0.00413},
      {"smiles": "C[C@@H]1CN(c2cc(F)c(-c3ccc(C(=O)NCC4CC4)c(F)c3)cc2NC(=O)c2c[nH]c(=O)cc2C(F)(F)F)C[C@H](C)N1C", "note": "[Example 735, N-[5-[4-(cyclopropylmethylcarbamoyl)-3-fluorophenyl]-4-fluoro-2-[(3R,5S)-3,4,5-trimethylpiperazin-1-yl]phenyl]-6-oxo-4-(trifluoromethyl)-H-pyridine-3-carboxamide]", "Kd": 0.00423},
      {"smiles": "C[C@@H]1COCCN1c1ncc(-c2cc(NC(=O)c3ccc(F)cc3C(F)(F)F)c(N3CCN(C)[C@@H](C)C3)cc2F)cn1", "note": "[Example 737, 4-fluoro-N-[4-fluoro-2-[(3S)-3,4-dimethylpiperazin-1-yl]-5-[2-[(3R)-3-methylmorpholin-4-yl]pyrimidin-5-yl]phenyl]-2-(trifluoromethyl)benzamide]", "Kd": 0.00461},
      {"smiles": "C[C@@H]1CN(c2nccc(-c3cc(NC(=O)c4ccc(F)cc4C(F)(F)F)c(N4CCN(C)[C@@H](C)C4)cc3F)n2)CCO1", "note": "[Example 738, 4-fluoro-N-[4-fluoro-2-[(3S)-3,4-dimethylpiperazin-1-yl]-5-[2-[(2R)-2-methylmorpholin-4-yl]pyrimidin-4-yl]phenyl]-2-(trifluoromethyl)benzamide]", "Kd": 0.004},
      {"smiles": "C[C@@H]1CN(c2cc(F)c(-c3nc(CN4CCOCC4)cs3)cc2NC(=O)c2cn(C)c(=O)cc2C(F)F)C[C@H](C)N1C", "note": "[Example 741, 4-(difluoromethyl)-N-[4-fluoro-5-[4-(morpholin-4-ylmethyl)-1,3-thiazol-2-yl]-2-[(3R,5S)-3,4,5-trimethylpiperazin-1-yl]phenyl]-1-methyl-6-oxopyridine-3-carboxamide]", "Kd": 0.00675},
      {"smiles": "C[C@@H]1CN(c2nccc(-c3cc(NC(=O)c4cn(C)c(=O)cc4C(F)(F)F)c(N4C[C@@H](C)N(C)[C@@H](C)C4)cc3F)n2)C[C@H](C)O1", "note": "[Example 743, N-[4-fluoro-5-[2-[(2R,6S)-2,6-dimethylmorpholin-4-yl]pyrimidin-4-yl]-2-[(3R,5S)-3,4,5-trimethylpiperazin-1-yl]phenyl]-1-methyl-6-oxo-4-(trifluoromethyl)pyridine-3-carboxamide]", "Kd": 0.00522},
      {"smiles": "C[C@@H]1CN(c2nccc(-c3cc(NC(=O)c4c[nH]c(=O)cc4C(F)F)c(N4C[C@@H](C)N(C)[C@@H](C)C4)cc3F)n2)C[C@H](C)O1", "note": "[Example 744, 4-(difluoromethyl)-N-[4-fluoro-5-[2-[(2R,6S)-2,6-dimethylmorpholin-4-yl]pyrimidin-4-yl]-2-[(3S,5R)-3,4,5-trimethylpiperazin-1-yl]phenyl]-6-oxo-1H-pyridine-3-carboxamide]", "Kd": 0.00276},
      {"smiles": "C[C@@H]1CN(c2nccc(-c3cc(NC(=O)c4cn(C)c(=O)cc4C(F)F)c(N4C[C@@H](C)N(C)[C@@H](C)C4)cc3F)n2)C[C@H](C)O1", "note": "[Example 745, 4-(difluoromethyl)-N-[4-fluoro-5-[2-[(2R,6S)-2,6-dimethylmorpholin-4-yl]pyrimidin-4-yl]-2-[(3R,5S)-3,4,5-trimethylpiperazin-1-yl]phenyl]-1-methyl-6-oxopyridine-3-carboxamide]", "Kd": 0.0056},
      {"smiles": "C[C@@H]1CN(c2cc(F)c(-c3ccnc(N4CCOCC4)n3)cc2NC(=O)c2cn(C)c(=O)cc2C(F)F)C[C@H](C)N1C", "note": "[Example 746, 4-(difluoromethyl)-N-[4-fluoro-5-(2-morpholin-4-ylpyrimidin-4-yl)-2-[(3R,5S)-3,4,5-trimethylpiperazin-1-yl]phenyl]-1-methyl-6-oxopyridine-3-carboxamide]", "Kd": 13600},
      {"smiles": "C[C@@H]1CN(c2cc(F)c(-c3ccc(C(=O)NC4CCCCC4(C)C)c(F)c3)cc2NC(=O)c2c[nH]c(=O)cc2C(F)(F)F)C[C@H](C)N1C", "note": "(stereo partly drawn) [Example 747, N-[5-[4-[(2,2-dimethylcyclohexyl)carbamoyl]-3-fluorophenyl]-4-fluoro-2-[(3R,5S)-3,4,5-trimethylpiperazin-1-yl]phenyl]-6-oxo-4-(trifluoromethyl)-1H-pyridine-3-carboxamide]", "Kd": 0.00485},
      {"smiles": "C[C@@H]1CN(c2cc(F)c(-c3ncc(CN4CCOCC4)s3)cc2NC(=O)c2cn(C)c(=O)cc2C(F)F)C[C@H](C)N1C", "note": "[Example 748, 4-(difluoromethyl)-N-[4-fluoro-5-[5-(morpholin-4-ylmethyl)-1,3-thiazol-2-yl]-2-[(3R,5S)-3,4,5-trimethylpiperazin-1-yl]phenyl]-1-methyl-6-oxopyridine-3-carboxamide]", "Kd": 0.0518},
      {"smiles": "C[C@@H]1CN(c2cc(F)c(-c3csc(CN4CCOCC4)n3)cc2NC(=O)c2cn(C)c(=O)cc2C(F)F)C[C@H](C)N1C", "note": "[Example 749, 4-(difluoromethyl)-N-[4-fluoro-5-[2-(morpholin-4-ylmethyl)-1,3-thiazol-4-yl]-2-[(3R,5S)-3,4,5-trimethylpiperazin-1-yl]phenyl]-1-methyl-6-oxopyridine-3-carboxamide]", "Kd": 0.0106},
      {"smiles": "C[C@@H]1CN(c2cc(F)c(-c3nc(CN4CCOCC4)cs3)cc2NC(=O)c2c[nH]c(=O)cc2C(F)(F)F)C[C@H](C)N1C", "note": "[Example 750, N-[4-fluoro-5-[4-(morpholin-4-ylmethyl)-1,3-thiazol-2-yl]-2-[(3R,5S)-3,4,5-trimethylpiperazin-1-yl]phenyl]-6-oxo-4-(trifluoromethyl)-1H-pyridine-3-carboxamide]", "Kd": 0.00171},
      {"smiles": "C[C@@H]1CN(c2cc(F)c(-c3ncc(CN4CCOCC4)s3)cc2NC(=O)c2c[nH]c(=O)cc2C(F)(F)F)C[C@H](C)N1C", "note": "[Example 751, N-[4-fluoro-5-[5-(morpholin-4-ylmethyl)-1,3-thiazol-2-yl]-2-[(3R,5S)-3,4,5-trimethylpiperazin-1-yl]phenyl]-6-oxo-4-(trifluoromethyl)-1H-pyridine-3-carboxamide]", "Kd": 0.00827}
    ]}
  ]
}
